Here are results for 2 compounds from patent US7749980B2, “Non-nucleotide compositions and method for treating pain” (Inspire Pharmaceuticals, Inc., priority 2003, dated 2010).

The test relates to mice. Kind of test: acetic acid-induced abdominal constriction assay for visceral pain in mice. As to conditions: for number of averaged abdominal constrictions during the observation time interval compared to saline control: 50 mg/kg i.p. in physiological saline, 10 minutes prior to i.p. 0.9% acetic acid, 10 minutes of observation starting 5 minutes after acetic acid, statistical difference versus saline control group; for pharmacological effect over saline vehicle control in reducing the abdominal constrictions induced by 0.9% acetic acid: similar studies, dose dependence. The class given is in vivo. The source says:
The method employed is a modification of the abdominal constriction test described by Collier, et. al (Collier, et al., Br. J. Pharmacol. Chemother. 32: 295-310 (1968)). For the rest of the example, compound: 6-(phenylureido)purine-2′, 3′-(4-ethylcyclohexylspiroketyl)-5′-nicotinyl-ribofuranoside is named “Compound A” and {6-[6-(Cyclohexylmethyl-amino)-purin-9-yl]-2-isobutyl-tetrahydro-furo[3,4-d][1,3]dioxol-4-yl}-methanol is named “Compound B”.
Briefly, a group of eight mice is designated as the control group, and each of said mice in the group receives an intraperitoneal (i.p.) injection of physiological saline in a dose-volume: mouse-weight ratio of 5 mL/kg ten minutes prior to an i.p. injection of 0.9% acetic acid in physiological saline in a dose-volume: mouse-weight ratio of 10 mL/kg. Each of said mice in the control group is placed in its own observation chamber shortly after the acetic acid injection and is allowed to explore. Each testing period starts 5 minutes after the acetic acid injection into a mouse, and consists of 10 minutes of observation during which time the number of abdominal constrictions of the mouse are counted. Abdominal constriction is defined as a lengthwise stretching of the torso with concave arching of the back. An average number of total constrictions per mouse per observation time is calculated from mice in the control group, and this indicates a baseline level of pain response in the control group animals.
Compound A is administered i.p., at a dose of 50 mg/kg suspended in a volume of physiological saline (5 mL/kg), 10 minutes prior to the administration of acetic acid, as described for the control group above.
Compound B is administered i.p., at a dose of 50 mg/kg suspended in a volume of physiological saline (5 mL/kg), 10 minutes prior to the administration of acetic acid, as described for the control group above.

As for “6-(phenylureido)purine-2′, 3′-(4-ethylcyclohexylspiroketyl)-5′-nicotinyl-ribofuranoside [Compound A]”, the “number of averaged abdominal constrictions during the observation time interval compared to saline control” value is given as “lower” and the “pharmacological effect over saline vehicle control in reducing the abdominal constrictions induced by 0.9% acetic acid” value is “dose dependent pharmacological effect”.

For `CC(C)CC1OC2C(CO)OC(n3cnc4c(NCC5CCCCC5)ncnc43)C2O1` (stereo not shown) [Compound B, {6-[6-(Cyclohexylmethyl-amino)-purin-9-yl]-2-isobutyl-tetrahydro-furo[3,4-d][1,3]dioxol-4-yl}-methanol], the “number of averaged abdominal constrictions during the observation time interval compared to saline control” value is recorded as “lower” and the “pharmacological effect over saline vehicle control in reducing the abdominal constrictions induced by 0.9% acetic acid” value is listed as “dose dependent pharmacological effect”.
